What was measured:
Human Fibroblast Cells = assay: Transfection of human fibroblast cells with DOTMA/DOPE/peptide and eGFP plasmid, fluorescent plate reader; type: cell-based; settings: DOTMA/DOPE 1:1 plus peptide with RRRRRRRRRRRR (SEQ ID NO: 109) at n terminus; EF1Alpha eGFP plasmid; 0.01 mL complex; 42 hours
Summary of the method: (§1)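 Cells at 60-70% confluence got DOTMA/DOPE (1:1) mixed with peptides bearing an N-terminal R12 DNA-binding tag, complexed 10 min with EF1α-eGFP plasmid (5 μg/mL in OptiMEM); 0.01 or 0.02 mL complex per well. After 42 h at 37 °C, GFP read by fluorescence plate reader and % transfected cells by microscopy, relative to lipid without peptide.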

C2C12 Cells = assay: Transfection of C2C12 cells with DOTMA/DOPE/peptide and eGFP plasmid, fluorescent plate reader; type: cell-based, mouse; settings: DOTMA/DOPE 1:1 plus peptide with RRRRRRRRRRRR (SEQ ID NO: 109) at n terminus; EF1Alpha eGFP plasmid; 0.02 mL complex; 42 hours
Summary of the method: as §1

some examined cell types = assay: Transfection expression and % cells transfected over the no peptide control; type: cell-based; settings: on some examined cell types
Summary of the method: as §1

HuVec Cells = assay: Transfection of HuVec cells with DOTMA/DOPE/peptide and eGFP plasmid, fluorescent plate reader; type: cell-based; settings: DOTMA/DOPE 1:1 plus peptide with RRRRRRRRRRRR (SEQ ID NO: 109) at n terminus; EF1Alpha eGFP plasmid; 0.01 mL complex; 42 hours
Summary of the method: as §1

NL-1 iPS Cells = assay: Transfection of NL-1 iPS cells with DOTMA/DOPE/peptide and eGFP plasmid, fluorescent plate reader; type: cell-based; settings: DOTMA/DOPE 1:1 plus peptide with RRRRRRRRRRRR (SEQ ID NO: 109) at n terminus; EF1Alpha eGFP plasmid; 42 hours
HeLa Cells [1] = assay: Transfection of HeLa cells with DOTMA/DOPE/peptide and eGFP plasmid, fluorescent plate reader; type: cell-based; settings: DOTMA/DOPE 1:1 plus peptide with RRRRRRRRRRRR (SEQ ID NO: 109) at n terminus; EF1Alpha eGFP plasmid; 0.01 mL complex; 42 hours
Summary of the method: as §1

Jurkat Cells = assay: Transfection of Jurkat cells with DOTMA/DOPE/peptide and eGFP plasmid, fluorescent plate reader; type: cell-based; settings: DOTMA/DOPE 1:1 plus peptide with RRRRRRRRRRRR (SEQ ID NO: 109) at n terminus; EF1Alpha eGFP plasmid; 0.02 mL complex; 42 hours
Summary of the method: as §1

HeLa Cells [2] = assay: Transfection of HeLa cells with DOTMA/SEQ ID NO: 72/peptide compared with Lipofectamine 2000; type: cell-based; settings: fusogenic peptide 0.1 mg/mL
Protocol: Cells were plated to so that on the day of transfection the cells were 60-70% confluent in 96 well tissue culture plates. A DOMTA/DOPE Lipid solution (1:1 molar ratio) at 2 mg/mL in water were mixed with an equal volume of surface ligand peptides that had the nucleic acid binding moiety RRRRRRRRRRRR (SEQ ID NO: 109) covalently linked to the n terminus of each peptide during peptide synthesis. Peptides were at 2 mg/mL in water. The DOTMA/DOPE and the surface ligand peptide solution the transfection reagent was diluted 1 to 1 (v/v) in water. DOMTA/DOPE/PEPTIDE solutions were added to 0.1 mL of a plasmid DNA solution (EF1Alpha eGFP plasmid) at 5 μg/mL in OptiMEM. Lipofectamine 2000 was obtained from Life Technologies.
All solutions were at room temperature. A volume of 0.2 mL of a 5 μg/mL solution of DNA was aliquoted into each well of a non-tissue cultured treated plate. 4.0 μL of transfection reagents were added to DNA solutions respectively. The transfection reagent and DNA solution was mixed by pipetting up and down twice. Transfection complexes were formed for 10 minutes. After 10 minutes, 0.01 or 0.02 mL of the transfection complex was added to cells. HuVEC, HeLa, human adult keratinocytes, human primary adult fibroblast, and rat cortical neurons all respectively received 0.01 mL of the tramsfectopm complex. Human skeletal muscle cells, mouse C2C12 cells, Jurkat, and THP-1 cells received 0.02 mL of the transfection complex. Cells were incubated for 42 hours at 37° C. at 5% CO2. Plates were read on a fluorescent plate reader. Cells were also examined visually under a microscope to assess the extent of transfection (in terms of the percent of cells transfected) with a fluorescent microscope. Other modes of analysis, for example quantification with B-galactosidase or luciferase reports plasmids can also be used. […] Surface ligand that caused increase expression of GFP over the lipid DOTMA with no surface ligand were considered to enhance transfection or had higher % cells transfected were considered to enhance transfection. Peptides that gave greater than 2 fold enhancement are noted in bold and could be further optimized by adding different transfection enhancers or could be used with different cationic lipids or polymers.
The fusogenic peptide was added to the DOMTA/peptide formulation to achieve a final concentration of 0.1 mg/mL to see if transfection reagents were further enhanced by the addition of a fusogenic peptide and could provide higher transfection efficiency into HeLa cells and expression than the commercially available Lipofectamine 2000.

[3] = 0.1 μL of DOTMA/SEQ ID NO: 72/Peptide in well of a 96 well plate
[4] = 0.2 μL of DOTMA/SEQ ID NO: 72/Peptide in well of a 96 well plate
[5] = 0.3 μL of DOTMA/SEQ ID NO: 72/Peptide in well of a 96 well plate
[6] = 0.4 μL of DOTMA/SEQ ID NO: 72/Peptide in well of a 96 well plate

Row | Substance | RF (Relative Fluorescence) of Transfection of Human Fibroblast Cells (Human Fibroblast Cells) | RF (Relative Fluorescence) of Transfection of C2C12 Cells (C2C12 Cells) | transfection expression and the % cells transfected over the no peptide control (some examined cell types) | RF (Relative Fluorescence) of Transfection of HuVec Cells (HuVec Cells) | RF (Relative Fluorescence) of Transfection of NL-1 iPS Cells (NL-1 iPS Cells) | RF (Relative Fluorescence) of Transfection of HeLa Cells (HeLa Cells [1]) | RF (Relative Fluorescence) of Transfection of Jurkat Cells (Jurkat Cells) | RF (Relative Fluorescence), DOTMA/SEQ ID NO: 72/Peptide, HeLa Cells (HeLa Cells [2]; [3]) | RF (Relative Fluorescence), DOTMA/SEQ ID NO: 72/Peptide, HeLa Cells (HeLa Cells [2]; [4]) | RF (Relative Fluorescence), DOTMA/SEQ ID NO: 72/Peptide, HeLa Cells (HeLa Cells [2]; [5]) | RF (Relative Fluorescence), DOTMA/SEQ ID NO: 72/Peptide, HeLa Cells (HeLa Cells [2]; [6])
1 | 342 (TAGSCLRKFSTM; Peptidic transfection agent) [compound 342] | 9525 | 9496 | increased | 12804 | 11493 | 33666 | 12825 | 41299 | 36040 | 28841 | 18351
2 | 343 (LFSHAVSSNG; Peptidic transfection agent) [compound 343] | 4590 | 3218 | increased | 16239 | 21726 | 5910 | 23499 | 6961 | 8626 | 8577 | 8160
3 | 344 (KGHRGF; Peptidic transfection agent) [compound 344] | 12704 | 1678 | increased | 11867 | 10895 | 14415 | 10160 | 13315 | 16387 | 12564 | 12511
4 | 347 (DLGTAGSCLRKFSTM; Peptidic transfection agent) [compound 347] | 9255 | 4457 | increased | 20728 | 21865 | 22527 | 17720 | 23188 | 21493 | 16814 | 14140
